# Test results from US6503948B2, “Method for prevention or treatment of acute allograft rejection and a pharmaceutical composition therefor” (Southern Research Institute, priority 1998, dated 2003).
# Values joined by “and” are separate entries in the source; they are usually repeats but may differ in a detail not shown here. Equal values may be shown once.
# System: acute allograft rejection (heart graft, Fischer donor to Long-Evans recipient)
# Assay: Intra abdominal heterotopic cardiografting in rats with donor pretreatment; graft survival
# Type: in vivo, rat
# Procedure: 1-(2-chloroethyl)-1-nitroso-3-(3-methylcyclohexyl)urea was administered 5 mg per donor rat at a dosage of 20 mg/kg 24 hours prior to removal of heart tissue for transplantation. Administration of the compound above results in survival of 25 days, 27 days, 30 days, 32 days, and greater than 60 days.
# According to this experiment, the donor rats were Fischer strain and the recipients were Long-Evans strains. These strains are mismatched at the major histocompatibility antigenic site (Ag locus). In the experiment, intra abdominal heterotopic cardiografting was performed using a modification of techniques described by Ono and Lindsey, Improved Technique of Heart Transplantation In Rats, Journal of Thoracic and Cardiovascular Surgery, 57: 225 (1969) and Lee et al., Heterotopic Heart and Lung Transplantation in the Rat, American Journal of Pathology, 59: 279 (1970), the entire contents of the disclosures of both of which are hereby incorporated by reference.
# According to this experiment, a total dose of 20 milligrams per kilogram of the above compound was administered to donor rats 24 hours prior to transplantation. According to this dosage regimen, survival was prolonged from 10 to 25-60 days. Survival for 60 days indicated permanent survival, in other words, while typically surviving 10 days, the rats lived for 25-60 days, with the rats living to 60 days having a permanent survival.
smiles,measurement,setting,value
CC1CCCC(NC(=O)N(CCCl)N=O)C1 (stereo not shown) [1-(2-chloroethyl)-1-nitroso-3-(3-methylcyclohexyl)urea],survival,"5 mg per donor rat, 20 mg/kg, given to donor 24 hours prior to removal of heart tissue, Fischer donors, Long-Evans recipients, typical survival 10 days",25 days and 27 days and 30 days and 32 days and greater than 60 days and 25-60 days
same,median survival (considering dying rats only) versus the compound alone,donors treated with 20 mg/kg compound combined with 100 mg/kg methotrexate,increase in median survival
same,microscopic evaluation of hearts,"rats surviving for 60 days, sacrificed after two years, donor dose 20 mg/kg",normal hearts
same,survival,recipients also treated with a single small dose of Cyclosporine A,increase in survival
